According to patent US5663205A, “Pharmaceutical composition for use in glaucoma treatment” (Senju Pharmaceutical Co. Ltd., priority 1992, dated 1997):

What was measured:
[1] = Test Example 7 (2)(a),(b): general conditions and body weight, 28 days instillation; format: in vivo, Japanese white rabbits; settings: 1% and 0.5% ophthalmic solutions, 4 times a day
Method: (2) Ocular local toxicity test in rabbits of 1.0% and 0.5% ophthalmic solutions of amosulalol hydrochloride by consecutive instillation for 28 days: With 15 male Japanese white rabbits divided into 3 groups each consisting of 5 rabbits, 1.0% and 0.5% ophthalmic solutions of amosulalol hydrochloride as well as physiological saline as a control were applied in one drop (0.05 ml) per time to the right eye of each rabbit alone, four times a day at a regular interval of 2.5 hours, for 28 days consecutively with the left eye being left untreated. (a) General conditions; Observation was made on the […] for general conditions once a week. (b) Body weight measurement; Body weight was measured once a week.

[2] = tested on: corneal epithelial and endothelial cells; experiment: Test Example 7 (2)(e): scanning electron microscope evaluation of corneal epithelial and endothelial cells; format: in vivo, Japanese white rabbits; settings: 1% and 0.5% ophthalmic solutions, 28 days
Method: (2) Ocular local toxicity test in rabbits of 1.0% and 0.5% ophthalmic solutions of amosulalol hydrochloride by consecutive instillation for 28 days: With 15 male Japanese white rabbits divided into 3 groups each consisting of 5 rabbits, 1.0% and 0.5% ophthalmic solutions of amosulalol hydrochloride as well as physiological saline as a control were applied in one drop (0.05 ml) per time to the right eye of each rabbit alone, four times a day at a regular interval of 2.5 hours, for 28 days consecutively with the left eye being left untreated. (e) Evaluation with a scanning electron microscope of corneal epithelial and endothelial cells; After completion of the instillation of 1.0% and 0.5% ophthalmic solutions of amosulalol hydrochloride, morphological observation was done on corneal epithelial and endothelial cells in 3 eyes each of the two groups.

[3] = tested on: β-adrenergic; settings: cited from earlier work
[4] = tested on: pupil diameter; experiment: Test Example 2 (2): pupil diameter, pigmented rabbits; format: in vivo, pigmented rabbits (Dutch belted rabbits); settings: 0.5% aqueous solution (FIG. 4), 0.5 to 6 hours
Method: Forty (40) male pigmented rabbits (Dutch belted rabbits) weighing about 2 kg, after having been confirmed to be free from ocular abnormalities, were bred in a breeding room maintained at a temperature of 24± 4° C. and at a relative humidity of 55± 15%, while they were fed solid food (Labo RG-RO, manufactured by Nihon Nohsan Kogyo K.K.) at a daily rate of 100 g per rabbit and allowed free access to tap water as drinking water. As a test drug, amosulalol hydrochloride was processed into 0.05%, 0.5% and 1.0% aqueous solutions which were used in the test, and 0.5% timolol maleate ophthalmic solution [Timoptol (registered trademark): Ban-yu Pharmaceutical Co.] and physiological saline were used as a positive control drug and a control substance, respectively. (2) Measurement of pupil diameter: With each of the rabbits as used under the above item (1), pupil diameter was measured for both eyes using a micrometer caliper, before instillation and 0.5, 1, 2, 3, 4, and 6 hours after topical application of the respective test drugs and physiological saline, respectively. […] The signs "a" and "c" designate physiological saline, 0.5% aqueous solution of amosulalol hydrochloride, respectively.

[5] = tested on: eyeball; experiment: Test Example 7 (2)(f): optical microscope evaluation of a sagittal section of the eyeball; format: in vivo, Japanese white rabbits; settings: 1% and 0.5% ophthalmic solutions, 28 days
Method: (2) Ocular local toxicity test in rabbits of 1.0% and 0.5% ophthalmic solutions of amosulalol hydrochloride by consecutive instillation for 28 days:
With 15 male Japanese white rabbits divided into 3 groups each consisting of 5 rabbits, 1.0% and 0.5% ophthalmic solutions of amosulalol hydrochloride as well as physiological saline as a control were applied in one drop (0.05 ml) per time to the right eye of each rabbit alone, four times a day at a regular interval of 2.5 hours, for 28 days consecutively with the left eye being left untreated.
(f) Evaluation with an optical microscope of a sagittal section of the eyeball;
After completion of the instillation of 1.0% and 0.5% ophthalmic solutions of amosulalol hydrochloride, specimens for optical microscopy were prepared each having a sagittal section of the eyeball from 2 eyes each of the two groups to conduct microscopic examination of the eyelid, conjunctiva, cornea, anterior segment, iris, crystalline lens vitreous body, retinochoroid membrane, screla and optic nerve.

[6] = tested on: pupil diameter; experiment: Test Example 1 (2): pupil diameter, pigmented rabbits; format: in vivo, pigmented rabbits (Dutch belted rabbits); settings: treated eyes, 0.5 to 6 hours after topical application
Method: Male pigmented rabbits (Dutch belted rabbits) weighing about 2 kg, after having been confirmed to be free from ocular abnormalities; were bred in a breeding room maintained at a temperature of 24± 4° C. and at a relative humidity of 55± 15%, while they were given solid food (Labo RG-RO manufactured by Nihon Nohsan Kogyo K.K.) at a daily rate of 100 g per rabbit and allowed free access to tap water as drinking water. As a test drug, amosulalol hydrochloride was processed into 0.05% (hereinafter, the term "%" is to be understood to designate "w/v %") and 1.0% aqueous solutions which were used in the test, and 0.5% timolol maleate ophthalmic solution [Timoptol (registered trademark): Ban-yu Pharmaceutical Co.] and physiological saline were used as a positive control drug and a control substance, respectively. (2) Measurement of pupil diameter: With each of the rabbits as used under the above item (1), pupil diameter was measured for both eyes using a micrometer caliper, before instillation and 0.5, 1, 2, 3, 4, and 6 hours after topical application of the individual test drugs and physiological saline, respectively.

[7] = tested on: Normal Intraocular Pressure; experiment: Test Example 1 (1): intraocular pressure reducing activity on normal intraocular pressure, pigmented rabbits; format: in vivo, pigmented rabbits (Dutch belted rabbits)
Method: Intraocular Pressure Reducing Activity of Amosulalol Hydrochloride on Normal Intraocular Pressure in Pigmented Rabbits Male pigmented rabbits (Dutch belted rabbits) weighing about 2 kg, after having been confirmed to be free from ocular abnormalities; were bred in a breeding room maintained at a temperature of 24± 4° C. and at a relative humidity of 55± 15%, while they were given solid food (Labo RG-RO manufactured by Nihon Nohsan Kogyo K.K.) at a daily rate of 100 g per rabbit and allowed free access to tap water as drinking water. As a test drug, amosulalol hydrochloride was processed into 0.05% (hereinafter, the term "%" is to be understood to designate "w/v %") and 1.0% aqueous solutions which were used in the test, and 0.5% timolol maleate ophthalmic solution [Timoptol (registered trademark): Ban-yu Pharmaceutical Co.] and physiological saline were used as a positive control drug and a control substance, respectively. (1) Measurement of intraocular pressure: Thirty two (32) rabbits were divided into four groups each consisting of 8 rabbits, and 50 μl of test drugs as well as the control drug and physiological saline were applied topically to one eye each of the individual rabbits, with the other being left untreated. Before instillation and 0.5, 1, 2, 3, 4, 6 and 8 hours after topical application,intraocular pressure for both of eyes of each rabbit was measured using a Pneumatonograph (manufactured by Alcon Co. Hereinafter referred to briefly as "PTG"). Shown in FIG. 1 are time-course changes of intraocular pressure taken with the eyes treated by instillation of each of the test drugs, control drug and physiological saline, with time (hour) after instillation taken as abscissa and intraocular pressure (mmHg as ordinate; each value in mean±S.E. (number of cases is 8). The signs "a", "b", "d" and "e" designate physiological saline, 0.05% aqueous solution of amosulalol hydrochloride, 1.0% aqueous solution of amosulalol hydrochloride, and 0.5% ophthalmic solution of timolol maleate, respectively.

COc1ccccc1OCCNCC(O)c1ccc(C)c(S(N)(=O)=O)c1.Cl (stereo not shown) [amosulalol hydrochloride, 5-[1-hydroxy-2-[2-(2-methoxyphenoxy)ethylamino]ethyl]-2-methylbenzenesulfonamide hydrochloride]
body weight measurement [1]: no abnormalities
general conditions [1]: no abnormalities
scanning electron microscope evaluation of corneal epithelial and endothelial cells [2]: no abnormalities
β-adrenergic blocking activity [3]: exhibit both α-adrenergic and β-adrenergic blocking activities
change in pupil diameter [4]: no significant change in the pupil diameter
optical microscope evaluation of a sagittal section of the eyeball [5]: no abnormalities
change in pupil diameter [6]: no significant change in the pupil diameter
maximum decrease in intraocular pressure ([7]; 0.05% aqueous solution, 2 hours after topical application): 3.6 mmHg
maximum decrease in intraocular pressure ([7]; 1.0% aqueous solution, 50 μl topical, 3 hours after instillation): 9.0 mmHg
decrease in intraocular pressure sustained until (time after instillation) ([7]; 1.0% aqueous solution, sustained from 30 min after instillation): 6 h
